One series has as its target T1, CSF-1R (Homo sapiens, UniProt P07333).
T1 construct: purchased Invitrogen PV3249 (lot 662393N)
In words: HTRF biochemical assay, CSF-1R. The conditions noted are these: Table 4. Summed up:
(§1)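 Kinase phosphorylation of a FAM-labelled peptide substrate, with ATP and Mn^2+ cofactors, run for 3 h at 25 °C, with optional enzyme–compound pre-incubation. Reactions were quenched with EDTA, and phosphopeptide was detected by anti-phosphotyrosine antibody HTRF.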

In a further series the target is T2, PDGFRα (Homo sapiens, UniProt P16234).
T2 construct: purchased Millipore 14-467 (lot 26321_ACTI)
T2 sequence (P16234 24-1089): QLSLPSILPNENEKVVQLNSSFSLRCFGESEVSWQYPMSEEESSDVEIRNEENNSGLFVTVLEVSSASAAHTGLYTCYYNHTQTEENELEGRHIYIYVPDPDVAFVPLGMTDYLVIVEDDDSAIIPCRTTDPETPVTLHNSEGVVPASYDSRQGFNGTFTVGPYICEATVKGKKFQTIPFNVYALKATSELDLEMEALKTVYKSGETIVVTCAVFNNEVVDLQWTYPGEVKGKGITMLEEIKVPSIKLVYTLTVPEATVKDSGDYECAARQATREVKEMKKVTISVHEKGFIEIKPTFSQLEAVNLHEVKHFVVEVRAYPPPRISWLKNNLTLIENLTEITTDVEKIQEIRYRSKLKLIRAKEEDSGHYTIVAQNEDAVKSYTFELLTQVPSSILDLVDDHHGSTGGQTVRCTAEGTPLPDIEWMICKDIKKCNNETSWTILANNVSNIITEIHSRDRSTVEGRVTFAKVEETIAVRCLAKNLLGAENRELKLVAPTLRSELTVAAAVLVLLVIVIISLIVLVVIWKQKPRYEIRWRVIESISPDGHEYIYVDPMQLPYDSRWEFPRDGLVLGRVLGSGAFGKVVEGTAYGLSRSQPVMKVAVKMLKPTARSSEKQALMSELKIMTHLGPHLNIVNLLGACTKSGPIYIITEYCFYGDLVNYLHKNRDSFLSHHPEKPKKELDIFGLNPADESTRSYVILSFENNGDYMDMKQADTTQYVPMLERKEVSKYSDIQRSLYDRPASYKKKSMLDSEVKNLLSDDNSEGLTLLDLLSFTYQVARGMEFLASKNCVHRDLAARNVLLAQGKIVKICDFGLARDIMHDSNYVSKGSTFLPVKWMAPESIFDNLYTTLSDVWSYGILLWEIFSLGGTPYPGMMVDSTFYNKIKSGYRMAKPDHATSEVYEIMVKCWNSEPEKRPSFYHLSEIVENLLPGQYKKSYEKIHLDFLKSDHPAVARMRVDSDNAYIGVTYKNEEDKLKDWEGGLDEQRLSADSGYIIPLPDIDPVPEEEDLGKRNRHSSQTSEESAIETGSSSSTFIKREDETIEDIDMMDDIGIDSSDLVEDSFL
Kind of series: HTRF biochemical assay, PDGFRα. As to conditions: Table 4, read-out: PDFGRα Biochemical IC50 avg. The gist of the method:
as §1
(In general: Time-resolved FRET reads energy transfer from a long-lived donor to a nearby acceptor.)

In another series the test system is CYP3A4. In words: Hepatocyte CYP induction assay, CYP3A4 gene expression. Format: in vitro ADME. The conditions noted are these: human hepatocytes. How it is done:
Exemplary compounds were tested for ability to induce CYP3A4 and/or CYP1A2 in hepatocytes. Procedures and results are described below.
Cryopreserved human hepatocytes were purchased from BioIVT (Baltimore, MD, USA), and they were stored in liquid nitrogen before using. The detailed information of hepatocytes is as follows:
Fresh dosing solutions of test compounds, and Rifampicin were prepared in the incubation medium on the day of dosing.
Cryopreserved hepatocytes were thawed and counted to determine yield, viability was measured. Hepatocytes at the concentrations of 0.7 million/mL were transferred to collagen-coated 96-well plates for attachment (0.1 mL viable cells/well). After allowing 4 to 5 hours for attachment of cells, the plating medium was replaced with Incubation Medium containing 2% (v/v) Matrigel™ (sandwich medium) and the hepatocytes were incubated until use.
All incubations were conducted at 37° C., 5% CO2, and saturated humidity.
The sandwich medium was removed and the hepatocytes were treated with incubation solutions containing test articles in vehicle (0.1% DMSO), or positive control for 24 hours after the cultures were established. The incubation solution was aspirated and replaced with incubation solution containing the same concentrations of test articles, vehicle, or positive controls for an additional 24 hours. The total treatment period was 48 hours. Triplicate were used for each concentration of test compound and positive control.
After treatment period of 48 hours, the incubation solution was aspirated. Hepatocytes were washed once with pre-warmed HBSS and incubated with 140 μL of RLT (lysis buffer from Rneasy 96 Kit) supplemented with 1% β-mercaptoethanol. Plates were then stored at ≤−60° C. freezer until RNA analysis.
Before RNA extraction, the frozen plate was thawed and cell lysates were transferred to 96-well plates. RNA isolation was performed using QIAcube HT System. RNA concentration was measured with NanoDrop ND-2000 spectrophotometer. The purity of RNA preparation was calculated by the ratio of the OD260 nm/OD280 nm and the acceptable range is between 1.8 and 2.2. Reverse transcription was performed to obtain cDNA. Quantification of the selective genes by real time quantitative Polymerase Chain Reaction (qPCR) was performed with TaqMan universal PCR Master Mix on the BIO-RAD CFX 384 Touch Real Time PCR System. The following setting were used: 50° C. for 2 minutes, 95° C. for 10 minutes, 40 cycles of 95° C. for 15 seconds and 60° C. for 1 minute. 18S rRNA was used as the internal standard.
To account for variation in RNA yields and reverse transcription polymerase chain reaction (RT-PCR), the gene of interest in all samples was normalized to an internal control gene (18S ribosomal RNA) (Cttarget gene−Ct18S=ΔCt).
The relative quantitation or change in mRNA level of selected genes induced by each test compound was expressed in relation to the vehicle control sample (Δctcompound−ΔCtvehicle=ΔΔCt). Fold changes in gene expression were determined by taking 2 to the power of this value (2^−ΔΔt).
% of positive control [(fold change in treated sample)−1]/[(fold change in positive control)−1]×100

For a further series, the system named is Caco-2 cells. Kind of series: Caco-2 permeability assay. As to conditions: for Caco-2: Papp A-B: Caco-2, apical to basolateral. Format: in vitro ADME. How it is done:
Exemplary compounds were tested for cell permeability in Caco-2, MDCKII-MDR1 and MDCKII-BCRP cell lines with efflux transporter engagement inferred from the efflux ratios determined. Procedures and results are described below. […] This feature of certain compounds is in part due to efflux transporter engagement. See, for instance, exemplary such compounds included in data tables below.
The transport buffer in the study was HBSS with 10.0 mM HEPES at pH 7.40±0.05. Test compound was tested at 2.00 μM bi-directionally in duplicate. Digoxin was tested at 10.0 μM bi-directionally in duplicate, while nadolol and metoprolol were tested at 2.00 μM in A to B direction in duplicate. Final DMSO concentration was adjusted to less than 1%. The plate was incubated for 2 hours in CO2 incubator at 37±1° C., with 5% CO2 at saturated humidity without shaking. And all samples after mixed with acetonitrile containing internal standard were centrifuged at 3200×g for 10 min. For nadolol and metoprolol, 200 μL supernatant solution was diluted with 600 μL ultra-pure water for LC-MS/MS analysis. For digoxin and test compounds, 200 μL supernatant solution was diluted with 200 μL ultra-pure water for LC-MS/MS analysis. Concentrations of test and control compounds in starting solution, donor solution, and receiver solution were quantified by LC-MS/MS methodologies, using peak area ratio of analyte/internal standard.
After transport assay, lucifer yellow rejection assay was applied to determine the Caco-2 cell monolayer integrity.
[…] And permeation of lucifer yellow through the monolayer was measured to evaluate the cellular integrity.
The apparent permeability coefficient Papp (cm/s) was calculated using the equation: Papp=(dCr/dt)×Vr/(A×C0), where dCr/dt is the cumulative concentration of compound in the receiver chamber as a function of time (μM/s); Vr is the solution volume in the receiver chamber (0.075 mL on the apical side, 0.25 mL on the basolateral side); A is the surface area for the transport, i.e. 0.0804 cm^2 for the area of the monolayer; C0 is the initial concentration in the donor chamber (μM).
The efflux ratio was calculated using the equation: Efflux Ratio=Papp (BA)/Papp(AB).
Percent recovery was calculated using the equation: % Solution Recovery=100×[(Vr×Cr)+(Vd×Cd)]/(Vd×C0), where Vd is the volume in the donor chambers (0.075 mL on the apical side, 0.25 mL on the basolateral side); Cd and Cr are the final concentrations of transport compound in donor and receiver chambers, respectively.
(In general: Caco-2 cells form a polarised layer with tight junctions and transporters.)

pIC50: −log10 of the molar value. Bounds are passed on as bounds.

T1 sequence (P07333 20-972): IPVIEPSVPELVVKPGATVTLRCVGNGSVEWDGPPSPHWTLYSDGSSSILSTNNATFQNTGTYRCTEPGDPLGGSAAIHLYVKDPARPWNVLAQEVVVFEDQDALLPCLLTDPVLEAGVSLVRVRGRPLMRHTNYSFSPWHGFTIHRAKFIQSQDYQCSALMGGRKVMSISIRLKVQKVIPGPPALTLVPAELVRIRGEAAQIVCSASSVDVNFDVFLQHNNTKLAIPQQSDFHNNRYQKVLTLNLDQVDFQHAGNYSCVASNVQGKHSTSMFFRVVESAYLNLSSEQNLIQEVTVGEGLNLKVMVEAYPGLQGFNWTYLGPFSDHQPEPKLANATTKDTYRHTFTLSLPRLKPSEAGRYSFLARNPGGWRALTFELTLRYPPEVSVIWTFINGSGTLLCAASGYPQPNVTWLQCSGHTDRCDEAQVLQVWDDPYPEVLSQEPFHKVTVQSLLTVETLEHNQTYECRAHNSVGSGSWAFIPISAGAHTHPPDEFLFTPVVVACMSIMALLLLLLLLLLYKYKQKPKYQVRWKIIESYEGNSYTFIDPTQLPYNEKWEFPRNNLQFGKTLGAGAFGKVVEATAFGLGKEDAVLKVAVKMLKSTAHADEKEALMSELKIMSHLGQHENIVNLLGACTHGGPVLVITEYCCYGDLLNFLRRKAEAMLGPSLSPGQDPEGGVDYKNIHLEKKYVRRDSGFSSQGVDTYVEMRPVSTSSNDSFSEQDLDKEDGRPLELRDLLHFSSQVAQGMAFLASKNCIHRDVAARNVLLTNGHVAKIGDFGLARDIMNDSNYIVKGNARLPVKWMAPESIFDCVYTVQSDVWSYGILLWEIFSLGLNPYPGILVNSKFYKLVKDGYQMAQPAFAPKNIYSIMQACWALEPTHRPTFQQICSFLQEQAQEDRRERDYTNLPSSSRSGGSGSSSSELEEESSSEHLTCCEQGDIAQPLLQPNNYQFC

Take `Cc1ccc(-c2noc([C@H]3C[C@@H]3F)n2)cc1NC(=O)c1cnc2cc(COCC(C)(C)O)ccn12` [Compound I-71, N-[5-[5-[(1R,2S)-2-fluorocyclopropyl]-1,2,4-oxadiazol-3-yl]-2-methyl-phenyl]-7-[(2-hydroxy-2-methyl-propoxy)methyl]imidazo[1,2-a]pyridine-3-carboxamide]: the pIC50 (commonly the negative decadic logarithm of the IC50, by convention in mol/L) was ≥ 7.30 on CSF-1R and 4.52 to 5.30 on PDGFRα. Moreover, the “CYP 3A4 induction mRNA: Mean fold at 10 μM” value in the series with CYP3A4 (donor five), in the series on CYP3A4 (donor four) and in the series with CYP3A4 (donor one) was “+ (induction fold of less than or equal to 2-fold)” in each case.
For `Cc1ccc(-c2noc([C@H](C)O)n2)cc1NC(=O)c1cnc2ccccn12` [Compound I-271], in the series on Caco-2 cells, the “Caco-2: Efflux Ratio” value was 2.93 and the “Caco-2: Papp A-B” value is given as 6.26 10^−6 cm/s. The “CYP 3A4 induction mRNA: Mean fold at 10 μM” value in the series on CYP3A4 (donor four) was “+ (induction fold of less than or equal to 2-fold)”.
For the compound `Cc1ccc(-c2noc([C@H]3C[C@@H]3F)n2)cc1NC(=O)c1cnc2ccc(F)cn12` [Compound I-288], the pIC50 on CSF-1R is 6.30 to 7.30. Also, at PDGFRα, the pIC50 was 5.30 to 6.30. In the series on Caco-2 cells, the “Caco-2: Efflux Ratio” value is given as 0.56 and the “Caco-2: Papp A-B” value is 17.4 10^−6 cm/s. The “CYP 3A4 induction mRNA: Mean fold at 10 μM” value with CYP3A4 (donor two) is recorded as “++++ (induction fold of greater than 10-fold)”.
`Cc1ccc(-c2noc(C3COC3)n2)cc1NC(=O)c1cnc2ccccn12` [Compound I-138]: in the series on Caco-2 cells, the “Caco-2: Efflux Ratio” value is 1.42 and the “Caco-2: Papp A-B” value is on record as 16.6 10^−6 cm/s. Further, the “CYP 3A4 induction mRNA: Mean fold at 10 μM” value with CYP3A4 (donor four) is listed as “+ (induction fold of less than or equal to 2-fold)”.
On the same counts, the results for `CCCS(=O)(=O)N1CC(c2nc(-c3ccc(Cl)c(NC(=O)c4cnc5ccccn45)c3)no2)C1` [Compound I-220] are 0.25, 16.5 10^−6 cm/s and “+++ (induction fold of greater than 3-fold to less than or equal to 10-fold)”.
With `COc1ccc2ncc(C(=O)Nc3cc(-c4noc(C[C@@H](C)O)n4)ccc3C)n2c1` [Compound I-119], the pIC50 at CSF-1R and on PDGFRα was 5.30 to 6.30 each time. In addition, in the series with CYP3A4 (donor four), the “CYP 3A4 induction mRNA: Mean fold at 10 μM” value is “+ (induction fold of less than or equal to 2-fold)”.
Take `COC(=O)N1CC(c2nc(-c3ccc(C(F)F)c(NC(=O)c4cnc5ccccn45)c3)no2)C1` [Compound I-225]: the pIC50 on CSF-1R was 5.30 to 6.30; on PDGFRα, 4.52 to 5.30. Besides, the “Caco-2: Efflux Ratio” value with Caco-2 cells is 1.37. Also, in the series on Caco-2 cells, the “Caco-2: Papp A-B” value is given as 9.62 10^−6 cm/s. Also, the “CYP 3A4 induction mRNA: Mean fold at 10 μM” value in the series on CYP3A4 (donor four) is “+++ (induction fold of greater than 3-fold to less than or equal to 10-fold)”.
Take `Cc1ccc(-c2noc(C3CCN3)n2)cc1NC(=O)c1cnc2ccccn12` (racemic) [Compound I-394]: the “Caco-2: Efflux Ratio” value in the series with Caco-2 cells came to 3.48. Moreover, in the series on Caco-2 cells, the “Caco-2: Papp A-B” value is recorded as 6.31 10^−6 cm/s. Also, the “CYP 3A4 induction mRNA: Mean fold at 10 μM” value in the series on CYP3A4 (donor five), with CYP3A4 (donor four) and in the series on CYP3A4 (donor three) was “+ (induction fold of less than or equal to 2-fold)” each time.
Consider `Cc1ccc(-c2noc(CC(C)O)n2)cc1NC(=O)c1cnc2ccccn12` (racemic) [Compound I-363], for which, in the series on Caco-2 cells, the “Caco-2: Efflux Ratio” value is 2.55. In addition, the “Caco-2: Papp A-B” value in the series with Caco-2 cells is 8.85 10^−6 cm/s. Moreover, the “CYP 3A4 induction mRNA: Mean fold at 10 μM” value in the series with CYP3A4 (donor five), in the series on CYP3A4 (donor four) and in the series with CYP3A4 (donor three) was “+ (induction fold of less than or equal to 2-fold)” each time.
Turning to `Cc1ccc(-c2noc(CC(O)C(F)F)n2)cc1NC(=O)c1cnc2ccccn12` (centres unmarked) [Compound I-114], the results for the pIC50 on CSF-1R and at PDGFRα were 6.30 to 7.30 and 4.52 to 5.30, respectively. In the series with Caco-2 cells, the “Caco-2: Efflux Ratio” value amounted to 4.4. Further, the “Caco-2: Papp A-B” value in the series on Caco-2 cells is recorded as 6.74 10^−6 cm/s. The “CYP 3A4 induction mRNA: Mean fold at 10 μM” value with CYP3A4 (donor five), with CYP3A4 (donor four) and with CYP3A4 (donor three) was “+ (induction fold of less than or equal to 2-fold)” each time.
Turning to `COCCOCc1ccn2c(C(=O)Nc3cc(-c4noc([C@H]5C[C@@H]5F)n4)ccc3C)cnc2c1` [Compound I-84], at CSF-1R, the pIC50 is ≥ 7.30. Moreover, the pIC50 at PDGFRα was 5.30 to 6.30. Further, in the series with Caco-2 cells, the “Caco-2: Efflux Ratio” value worked out at 1.8 and the “Caco-2: Papp A-B” value is reported as 11.8 10^−6 cm/s. Also, the “CYP 3A4 induction mRNA: Mean fold at 10 μM” value in the series with CYP3A4 (donor four) is recorded as “+ (induction fold of less than or equal to 2-fold)”.
For `Cc1ccc(-c2noc([C@H]3C[C@@H]3F)n2)cc1NC(=O)c1cnc2cc(OC(F)(F)F)ccn12` [Compound I-87], the pIC50 at CSF-1R is 6.30 to 7.30. Also, at PDGFRα, the pIC50 was 4.52 to 5.30. In addition, in the series on Caco-2 cells, the “Caco-2: Efflux Ratio” value came to 0.66 and the “Caco-2: Papp A-B” value is given as 7.81 10^−6 cm/s. Besides, the “CYP 3A4 induction mRNA: Mean fold at 10 μM” value in the series on CYP3A4 (donor four) is recorded as “+ (induction fold of less than or equal to 2-fold)”.
For the compound `Cc1ccc(-c2noc([C@H]3CCC(=O)N3)n2)cc1NC(=O)c1cnc2ccccn12` (racemic) [Compound I-327], the “Caco-2: Efflux Ratio” value in the series on Caco-2 cells was found to be 102. In the series on Caco-2 cells, the “Caco-2: Papp A-B” value is listed as 0.27 10^−6 cm/s. The “CYP 3A4 induction mRNA: Mean fold at 10 μM” value with CYP3A4 (donor five), with CYP3A4 (donor four) and with CYP3A4 (donor three) was “+ (induction fold of less than or equal to 2-fold)” throughout.
As for `Cc1ccc(-c2noc([C@H]3CC(F)(F)CN3)n2)cc1NC(=O)c1cnc2ccccn12` [Compound I-359], in the series on Caco-2 cells, the “Caco-2: Efflux Ratio” value is recorded as 1.19 and the “Caco-2: Papp A-B” value is recorded as 9.88 10^−6 cm/s. Further, in the series with CYP3A4 (donor four), the “CYP 3A4 induction mRNA: Mean fold at 10 μM” value is “+ (induction fold of less than or equal to 2-fold)”.

For the origin of these results see patent US20240254119A1 (THIRD HARMONIC BIO, INC., priority 2022, published 2024).
